Data taken from publication PMC5399635 (The Journal of Pharmacology and Experimental Therapeutics, 2017).
Like-named read-outs stand apart in the source and are kept apart here.

Legend:
human µ-opioid receptor = human µ-opioid receptor (Homo sapiens, UniProt P35372); assay: [35S]GTPγS binding, Schild-type antagonism of morphine (CHO-K1 membranes); details: versus morphine; pooled 3 experiments
[1] = Quantitative whole body autoradiography; type: in vivo, rat; details: for Concentration of radioactivity, Blood / Concentration of radioactivity, Brain / Concentration of radioactivity, Large intestine wall / Concentration of radioactivity, Liver / Concentration of radioactivity, Spinal cord / Concentration of radioactivity, Fetus (whole) / Concentration of radioactivity, Placenta / Concentration of radioactivity, Uterus: single oral 50 mg/kg
Experimental: Quantitative whole body autoradiography was conducted to track the overall distribution of a single oral dose of radiolabeled naloxegol in adult male and pregnant female rats.
Seven male Lister hooded rats (8–9 weeks old at dosing, body weight 255–290 g each) and 5 time-mated female Sprague-Dawley rats (body weight 347–392 g each) were supplied by Charles River UK Limited (Margate, Kent, UK). All animals were acclimated to the experimental unit before the study (males, 6 days; females, 13 days).
Animals were fasted overnight before dose administration. […] Male rats were administered a mean (±S.D.) of 5.62 (±0.06) MBq/kg; female rats received a mean of 5.60 (±0.03) MBq/kg.
One male rat was humanely euthanized by CO2 narcosis at 0.5, 1, 4, 24, 48, 168, and 504 hours postdose, respectively. One time-mated female rat was humanely euthanized at 0.5, 1, 4, 24, and 48 hours postdose, respectively.
After removal of the whiskers, legs, and tails, the carcasses were frozen by immersion in a mixture of solid CO2 in hexane for approximately 30 minutes and then embedded in a block of carboxymethylcellulose, which was frozen in the same way. After equilibration at approximately –20°C, sagittal sections (30 μm thick) were taken using a whole body cryomicrotome (Leica Biosystems GmbH, Nussloch, Germany). The sections were freeze dried in a chamber of the cryomicrotome before storage at ambient temperature. Carcasses were stored frozen (–20°C) until analysis. After analysis, samples were returned to storage at –20°C. Freeze-dried whole body sections were stored at room temperature.
The radioactivity present in various organs and tissues in whole body sections was determined by QWBA. After exposure, the imaging plates were scanned using a phosphorimage analyzer. Tissues and organs of interest were quantified using AIDA image analysis software (version 4.06; Raytest Isotopenmeßgeräte GmbH, Straubenhardt, Germany). For analysis, representative whole body sections were placed into close contact with phosphor screens and left for a 7-day period. A set of external standards were also exposed on each phosphor screen. These standards were prepared from blood spiked with a serial dilution of a ^14C-labeled reference solution, which was dispensed into holes drilled into a block of carboxymethylcellulose, frozen, and then sectioned in the same way as the animal samples.
After the phosphor screen was scanned, an image of the radioactivity in the sample was stored digitally. For quantitative analysis, six background areas were defined on each stored phosphor screen image. The software automatically calculated the mean background and subsequently subtracted this from all standards and tissues analyzed. A regression coefficient was derived by comparing the response of each standard with the nominal disintegrations per minute per gram over the range of radioactive concentration used and forcing the response curve through the origin. The concentrations of the standards used were in the range of 0.09 to 826.31 μg Eq/g. The response curve was linear over these concentrations and was assumed to be linear to the limit of reliable determination.
Organs or tissues from representative autoradiograms were identified and integrated. The back-calculated tissue concentrations (μg Eq/g) were then determined by the software. The limit of reliable measurement for each storage screen was calculated from the assessment of the mean background of the plate and taken to be three times the S.D. of the mean above background. At the specific activity used in this study, the limit of reliable measurement was in the range of 0.06 to 0.16 μg Eq/g.

[2] = system: opioid-induced constipation; parameters: method as in Chey et al., 2014; details: two trials, ref Chey et al., 2014, cited from earlier work

Sequence of human µ-opioid receptor (P35372 whole entry): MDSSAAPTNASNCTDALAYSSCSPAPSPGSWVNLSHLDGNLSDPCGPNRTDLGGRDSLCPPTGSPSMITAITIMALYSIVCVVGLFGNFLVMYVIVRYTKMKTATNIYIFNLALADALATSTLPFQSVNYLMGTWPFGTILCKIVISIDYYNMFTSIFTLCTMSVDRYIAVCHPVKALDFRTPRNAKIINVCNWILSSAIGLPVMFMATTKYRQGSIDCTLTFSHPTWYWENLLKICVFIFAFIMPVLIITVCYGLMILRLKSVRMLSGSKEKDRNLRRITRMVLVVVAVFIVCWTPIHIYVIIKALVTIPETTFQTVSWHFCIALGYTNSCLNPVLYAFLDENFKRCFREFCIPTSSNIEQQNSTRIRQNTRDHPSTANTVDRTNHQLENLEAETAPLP

**Q.** Which Schild slope (human µ-opioid receptor) does the source give for `C=CCN1CC[C@]23c4c5ccc(O)c4O[C@H]2[C@@H](OCCOCCOCCOCCOCCOCCOCCOC)CC[C@@]3(O)[C@H]1C5` [Naloxegol, naloxegol] here?
**A.** –1.03

**Q.** What about the “Concentration of radioactivity, Blood” value ([1]; male rat, 0.5 h) of the same compound?
**A.** 3.03 μg Eq/g

**Q.** And the “Concentration of radioactivity, Brain” value ([1]; male rat, 0.5 h)?
**A.** BLQ

**Q.** What about the “Concentration of radioactivity, Large intestine wall” value (“Concentration … Large intestine wall” below) ([1]; male rat, 0.5 h) of the same compound?
**A.** 8.83 μg Eq/g

**Q.** And the “Concentration of radioactivity, Liver” value ([1]; male rat, 0.5 h)?
**A.** 43.40 μg Eq/g

**Q.** And the “Concentration of radioactivity, Spinal cord” value (“Concentration … Spinal cord” for short) ([1]; male rat, 0.5 h)?
**A.** 0.06 μg Eq/g

**Q.** And the “Concentration of radioactivity, Blood” value ([1]; male rat, 1 h)?
**A.** 4.11 μg Eq/g

**Q.** And the “Concentration of radioactivity, Brain” value ([1]; male rat, 1 h)?
**A.** 0.21 μg Eq/g

**Q.** What about the “Concentration … Large intestine wall” value ([1]; male rat, 1 h) of the same compound?
**A.** 14.09 μg Eq/g

**Q.** What about the “Concentration of radioactivity, Liver” value ([1]; male rat, 1 h) of the same compound?
**A.** 66.49 μg Eq/g

**Q.** And the “Concentration … Spinal cord” value ([1]; male rat, 1 h)?
**A.** 0.15 μg Eq/g

**Q.** What about the “Concentration of radioactivity, Blood” value ([1]; male rat, 4 h) of the same compound?
**A.** 2.14 μg Eq/g

**Q.** And the “Concentration of radioactivity, Brain” value ([1]; male rat, 4 h)?
**A.** 0.14 μg Eq/g

**Q.** What about the “Concentration … Large intestine wall” value ([1]; male rat, 4 h) of the same compound?
**A.** 12.09 μg Eq/g

**Q.** And the “Concentration of radioactivity, Liver” value ([1]; male rat, 4 h)?
**A.** 58.74 μg Eq/g

**Q.** And the “Concentration of radioactivity, Liver” value ([1]; male rat, 24 h)?
**A.** 4.61 μg Eq/g

**Q.** What about the “Concentration of radioactivity, Liver” value ([1]; male rat, 48 h) of the same compound?
**A.** 7.74 μg Eq/g

**Q.** What about the “Concentration of radioactivity, Liver” value ([1]; male rat, 168 h) of the same compound?
**A.** 1.03 μg Eq/g

**Q.** And the “Concentration of radioactivity, Blood” value ([1]; pregnant female rat, 0.5 h)?
**A.** 12.38 μg Eq/g

**Q.** What about the “Concentration of radioactivity, Brain” value ([1]; pregnant female rat, 0.5 h) of the same compound?
**A.** 0.34 μg Eq/g

**Q.** And the “Concentration of radioactivity, Fetus (whole)” value (from here on “Concentration … (whole)”) ([1]; pregnant female rat, 0.5 h)?
**A.** 3.10 μg Eq/g

**Q.** And the “Concentration … Large intestine wall” value ([1]; pregnant female rat, 0.5 h)?
**A.** 23.61 μg Eq/g

**Q.** What about the “Concentration of radioactivity, Liver” value ([1]; pregnant female rat, 0.5 h) of the same compound?
**A.** 68.67 μg Eq/g

**Q.** And the “Concentration of radioactivity, Placenta” value ([1]; pregnant female rat, 0.5 h)?
**A.** 21.09 μg Eq/g

**Q.** And the “Concentration … Spinal cord” value ([1]; pregnant female rat, 0.5 h)?
**A.** 0.24 μg Eq/g

**Q.** And the “Concentration of radioactivity, Uterus” value ([1]; pregnant female rat, 0.5 h)?
**A.** 31.19 μg Eq/g

**Q.** What about the “Concentration of radioactivity, Blood” value ([1]; pregnant female rat, 1 h) of the same compound?
**A.** 7.80 μg Eq/g

**Q.** And the “Concentration of radioactivity, Brain” value ([1]; pregnant female rat, 1 h)?
**A.** 0.15 μg Eq/g

**Q.** And the “Concentration … (whole)” value ([1]; pregnant female rat, 1 h)?
**A.** 1.99 μg Eq/g

**Q.** What about the “Concentration … Large intestine wall” value ([1]; pregnant female rat, 1 h) of the same compound?
**A.** 25.20 μg Eq/g

**Q.** And the “Concentration of radioactivity, Liver” value ([1]; pregnant female rat, 1 h)?
**A.** 56.01 μg Eq/g

**Q.** What about the “Concentration of radioactivity, Placenta” value ([1]; pregnant female rat, 1 h) of the same compound?
**A.** 12.89 μg Eq/g

**Q.** What about the “Concentration … Spinal cord” value ([1]; pregnant female rat, 1 h) of the same compound?
**A.** 0.10 μg Eq/g

**Q.** And the “Concentration of radioactivity, Uterus” value ([1]; pregnant female rat, 1 h)?
**A.** 82.21 μg Eq/g

**Q.** What about the “Concentration of radioactivity, Blood” value ([1]; pregnant female rat, 4 h) of the same compound?
**A.** 6.92 μg Eq/g

**Q.** And the “Concentration of radioactivity, Brain” value ([1]; pregnant female rat, 4 h)?
**A.** 0.28 μg Eq/g

**Q.** And the “Concentration … (whole)” value ([1]; pregnant female rat, 4 h)?
**A.** 2.23 μg Eq/g

**Q.** What about the “Concentration … Large intestine wall” value ([1]; pregnant female rat, 4 h) of the same compound?
**A.** 37.45 μg Eq/g

**Q.** And the “Concentration of radioactivity, Liver” value ([1]; pregnant female rat, 4 h)?
**A.** 58.78 μg Eq/g

**Q.** And the “Concentration of radioactivity, Placenta” value ([1]; pregnant female rat, 4 h)?
**A.** 14.78 μg Eq/g

**Q.** What about the “Concentration … Spinal cord” value ([1]; pregnant female rat, 4 h) of the same compound?
**A.** 0.12 μg Eq/g

**Q.** What about the “Concentration of radioactivity, Uterus” value ([1]; pregnant female rat, 4 h) of the same compound?
**A.** 185.03 μg Eq/g

**Q.** And the “Concentration … (whole)” value ([1]; pregnant female rat, 24 h)?
**A.** 0.17 μg Eq/g

**Q.** And the “Concentration of radioactivity, Liver” value ([1]; pregnant female rat, 24 h)?
**A.** 4.42 μg Eq/g

**Q.** What about the “Concentration of radioactivity, Placenta” value ([1]; pregnant female rat, 24 h) of the same compound?
**A.** 0.16 μg Eq/g

**Q.** And the “Concentration of radioactivity, Uterus” value ([1]; pregnant female rat, 24 h)?
**A.** 19.04 μg Eq/g

**Q.** What about the “Concentration … (whole)” value ([1]; pregnant female rat, 48 h) of the same compound?
**A.** BLQ

**Q.** And the “Concentration of radioactivity, Liver” value ([1]; pregnant female rat, 48 h)?
**A.** 2.68 μg Eq/g

**Q.** What about the “Concentration of radioactivity, Placenta” value ([1]; pregnant female rat, 48 h) of the same compound?
**A.** BLQ

**Q.** And the “Concentration of radioactivity, Uterus” value ([1]; pregnant female rat, 48 h)?
**A.** 4.00 μg Eq/g

**Q.** What about the “time to elimination of radioactivity from most tissues” value ([1]; rat, naloxegol-derived radioactivity) of the same compound?
**A.** ≤ 24 h

**Q.** And the “12-week response rate versus placebo” value ([2]; 12.5 mg once daily)?
**A.** significantly higher than with placebo in only one trial

**Q.** What about the “12-week response rate versus placebo” value ([2]; 25 mg once daily) of the same compound?
**A.** Significantly more patients responded
